Test results: patent US20080268013A1, “Polyethylene Oxide Polymers Including Anti-Inflammatory Glycodendrons” (EMORY UNIVERSITY, priority 2005, published 2008)

Experiments:
[1] = tested on: neutrophil and macrophage recruitment; assay: Thioglycollate induced murine model of peritoneal inflammation; format: in vivo, mouse; settings: C57BL mice
Protocol: Acute inflammation was induced in a mouse model by thioglycollate injection into the peritoneal cavity.
Thioglycollate induced murine model of peritoneal inflammation. Mice (C57BL, male, 6-8 weeks old) were injected intraperitoneally with 2 mL of 3% thioglycollate broth. Five minutes later, animals received intravenous injections of 0.2 mL sterile pyrogen-free saline (S) with and without heparin (H) or analogs (3c) (0.5 mg/mouse with 0.2 ml saline). Mice were sacrificed after 3 hours and peritoneal cells harvested by lavage with 8 mL of ice-cold phosphate buffered saline (PBS) containing 3 mM EDTA. Peritoneal cells were counted and cells stained for 30 minutes at 4° C. with FITC-conjugated rat anti-mouse Gr-1 mAb diluted in PBS containing 2.5% FBS. After washing three times with PBS, FACScan analysis was performed as described by Wang et al. (2002) and was used to sort, count and analyze the percentage of neutrophils and macrophages which were converted to the cell number using the formula N/M=Total cell number X % of NIM, respectively (N:Neutrophil; M: Macrophages). The cells were gated (FACS) expressing a high level of Gr-1 antigen (N) and Mac-1 (M). (See additional ref: Lagasse; E., Weissman; I. J. Immunological Meth. 1996, 197, 139-150). Statistical differences among groups were analyzed by ANOVA method using StatView software.

[2] = tested on: E-selectin; assay: U937 cell adhesion to immobilized E-selectin; format: cell-based; settings: immobilized E-selectin chimera
Protocol: U937 cell binding to immobilized E-, L- or P-selectin. […] After blocking the plate with 10% BSA in PBS, P-selectin (0.05 μg/well), L-selectin (4 μg/well) or E-selectin (1 μg/well) chimeras were added. After 1 hr, wells were washed with blocking solution. U937 cells were grown in RPMI-1640 medium (containing 10% fetal bovine serum (FBS), 100 U/ml penicillin and 100 μg/ml streptomycin in an atmosphere of 5% CO2 in air and 100% relative humidity. The cells were fluorescently labeled with 10 μM calcein AM in RPMI 1640 medium containing 2.5% FBS for 30 min at 37° C. The cells were collected by low speed centrifugation, washed three times with RPMI 1640 medium, and resuspended at a density of 2×10^6 cells/mL in medium without FBS. Heparin and test compounds, or 10 mM sodium EDTA (negative control) were added at 50 μL/well, and then the fluorescently labeled U937 cell suspension (50 μL/well) was added and incubated for 30 min at room temperature. Non-adherent cells were removed by rinsing the plates three times with PBS, and the number of adherent cells was quantified by measuring the fluorescence intensity at 485 nm after […] 2% Triton X-100 in 0.1 M Tris-HCl, pH 9.5. Raw data were converted to relative fluorescence intensity (RFI) for comparative purposes.

Substance: heparin
- in vivo activity on inflammatory cell recruitment (in words) [1]: inhibited inflammatory cell recruitment to a similar degree
- inhibitory activity toward E-selectin (U937 cell adhesion) [2]: Neither heparin nor 3c exhibited substantial inhibitory activity
